{"source": "patent US20080063628A1", "about": "“METHODS TO PROMOTE CELL DIFFERENTIATION” (priority 2006, published 2008)", "tested_on": "Panc-1 cells", "experiment": "Trichostatin A 48 h treatment, gene expression by Real-Time PCR (Example 1)", "format": "cell-based, human", "details": "for GAPDH gene expression / HNF-3 beta gene expression / Insulin gene expression / PDX-1 gene expression / Sox17 gene expression / glucagon gene expression: 48 hours", "protocol": "Neonatal fibroblasts, also designated Hs27, were derived from human foreskins and obtained from the American Type Culture Collection (ATCC). Panc-1 cells are a transformed cell line derived from a pancreatic epitheloid carcinoma of ductal origin, also obtained from ATCC.\nFibroblasts or Panc-1 cells were seeded into a 6-well tissue culture plate at a density of 50,000 cells/cm^2. Both cell types were cultured in medium containing 10% FBS and DMEM under standard cell culture conditions (37° C., 5% CO2). After reaching confluence (2-3 days), trichostatin A diluted in dimethyl sulfoxide (DMSO) and medium was added at either 2.5 μM or 5 μM to the cultures. Parallel cultures were treated with an equivalent concentration of DMSO as a vehicle control.\nRNA samples were obtained from the treated cultures 48 hours after the addition of trichostatin A or DMSO. The culture medium was removed, the cells were washed with phosphate buffered saline (PBS), and RLT Lysis buffer containing β-mercaptoethanol (Qiagen) was added. The samples were homogenized using Qiashredder columns (Qiagen), and RNA was purified using the RNeasy Mini Kit (Qiagen). RNA quantity and quality was determined using a spectrophotometer, and cDNA was made using the iScript cDNA synthesis kit (BioRad).\nThe expression levels of Sox17, HNF-3 beta, Pdx-1, insulin, and glucagon were determined by Real-Time PCR (RT-PCR), as described in Example 15. Samples of 20 ng cDNA were used in each reaction. RT-PCR reactions were performed on the Applied Biosystems 7500, and data was analyzed using the accompanying software. Human pancreas cDNA was included as a positive control. Results were normalized against GAPDH expression levels.\nReal-time PCR amplifcation and quantitative analysis. Unless otherwise stated, all reagents were purchased from Applied Biosystems. Real-time PCR reactions were performed using the ABI PRISM™ 7500 Sequence Detection System. TAQMAN™ FAST UNIVERSAL PCR MASTER MIX™ (ABI, CA) was used with 20 ng of reverse transcribed RNA in a total reaction volume of 20 μl. Each cDNA sample was run in duplicate to allow correction of pipetting errors. Primers and FAM-labeled TAQMAN™ probes were used at concentrations of 200 nM. The level of expression for each target gene was normalized using the pre-developed Applied Biosystem's human glyceraldehyde-3-phosphate dehydrogenase (GAPDH) endogenous control kit. Primers and probes were designed using either ABI PRISM PRIMER EXPRESS™ software or a pre-developed ABI gene analysis kit. For each gene, either one of the primers or the probe were designed to be exon-boundary spanning. This eliminated the possibility of the primers/probe binding to any genomic DNA present. The primer and probe sets are listed as follows: Pdx-1 (Hs00426216), Insulin (Hs00355773), glucagon (Hs00174967), and FoxA2 (HNF 3-beta) (Hs00232764). The remaining primers were designed using the PRIMERS program (ABI, CA). After an initial 95° C. incubation for 20 sec, samples were cycled 40 times in two stages: a denaturation step at 95° C. for 3 sec, followed by an annealing/extension step at 60° C. for 30 sec.\nFor each primer/probe set, a cycle time value was determined as the cycle number at which the fluorescence intensity of the PCR reaction reached a specific value in the middle of the exponential region of amplification. An increase in expression of a gene corresponded to a decrease in the number of cycles required for the fluorescence intensity to reach this value.", "key": {"[1]": {"details": "Panc-1 cells treated for 48 hours"}}, "data": [{"smiles": "CC(/C=C/C(=O)NO)=C\\[C@@H](C)C(=O)c1ccc(N(C)C)cc1", "note": "[trichostatin A]", "values": [{"measurement": "GAPDH gene expression", "setting": "2.5 μM", "value": "+++ (detectable at less than 35 cycles by RT-PCR with SE less than 0.9)"}, {"measurement": "HNF-3 beta gene expression", "setting": "2.5 μM", "value": "+++ (detectable at less than 35 cycles by RT-PCR with SE less than 0.9)"}, {"measurement": "Insulin gene expression", "setting": "2.5 μM", "value": "+ (detectable at greater than 35–40 cycles by RT-PCR)"}, {"measurement": "PDX-1 gene expression", "setting": "2.5 μM", "value": "+++ (detectable at less than 35 cycles by RT-PCR with SE less than 0.9)"}, {"measurement": "Sox17 gene expression", "setting": "2.5 μM", "value": "+++ (detectable at less than 35 cycles by RT-PCR with SE less than 0.9)"}, {"measurement": "glucagon gene expression", "setting": "2.5 μM", "value": "+++ (detectable at less than 35 cycles by RT-PCR with SE less than 0.9)"}, {"measurement": "GAPDH gene expression", "setting": "5.0 μM", "value": "+++ (detectable at less than 35 cycles by RT-PCR with SE less than 0.9)"}, {"measurement": "HNF-3 beta gene expression", "setting": "5.0 μM", "value": "+++ (detectable at less than 35 cycles by RT-PCR with SE less than 0.9)"}, {"measurement": "Insulin gene expression", "setting": "5.0 μM", "value": "+ (detectable at greater than 35–40 cycles by RT-PCR)"}, {"measurement": "PDX-1 gene expression", "setting": "5.0 μM", "value": "+++ (detectable at less than 35 cycles by RT-PCR with SE less than 0.9)"}, {"measurement": "Sox17 gene expression", "setting": "5.0 μM", "value": "+++ (detectable at less than 35 cycles by RT-PCR with SE less than 0.9)"}, {"measurement": "glucagon gene expression", "setting": "5.0 μM", "value": "+++ (detectable at less than 35 cycles by RT-PCR with SE less than 0.9)"}, {"measurement": "Pdx-1 expression with 5.0 μm versus 2.5 μM trichostatin A", "setting": "[1]", "value": 11, "unit": "times higher"}, {"measurement": "Sox-17 expression with 5.0 μm versus 2.5 μM trichostatin A", "setting": "[1]", "value": 60, "unit": "times higher"}, {"measurement": "glucagon expression with 5.0 μm versus 2.5 μM trichostatin A", "setting": "[1]", "value": 5, "unit": "times higher"}]}]}
